Experimental data reported in patent publication US6686390B2, “Compounds having antiinflamatory activity: process for their preparation and pharmaceutical compositions containing them” (Dr. Reddy's Laboratories Limited, priority 2000, dated 2004).

| SMILES | melting point [°C] |
| --- | --- |
| COc1ccc(C2=C(c3ccc(SC)c(F)c3)COC2=O)cc1 [Example 38, 4-(4-Methylsulfanyl-3-fluorophenyl)-3-(4-methoxyphenyl)-2,5-dihydro-2-furanone] | 122 to 124 |
| CSc1ccc(C2=C(c3ccc(SC)c(Cl)c3)COC2=O)cc1 [Example 21, 3-(4-Methylsulfanylphenyl)-4-(3-chloro-4-methylsulfanylphenyl)-2,5-dihydro-2-furanone] | 157 to 158 |
| CSc1ccc(C2=C(c3ccccc3)C(=O)OC2)c(F)c1 [Example 18, 4-(2-Fluoro-4-methylsulfanylphenyl)-3-phenyl-2,5-dihydro-2-furanone] | 145 to 147 |
| CSc1ccc(C2=C(c3ccc(F)cc3)C(=O)OC2)c(F)c1 [Example 42, 4-(2-Fluoro-4-methylsulfanylphenyl)-3-(4-fluorophenyl)-2,5-dihydro-2-furanone] | 118 |
| CSc1ccc(C2=C(c3ccc(C)cc3)C(=O)OC2)cc1C [Example 8, 4-(3-Methyl-4-methylsulfanylphenyl)-3-(4-methylphenyl)-2,5-dihydro-2-furanone] | 144 to 147 |
| CSc1ccc(C2=C(c3ccc(CC(C)C)cc3)C(=O)OC2)c(F)c1 [Example 35, 4-(2-Fluoro-4-methylsulfanylphenyl)-3-(4-isobutylphenyl)-2,5-dihydro-2-furanone] | 92 to 94 |
| CSc1ccc(C2=C(c3ccc(F)cc3)C(=O)OC2)cc1C [Example 7, 4-(3-Methyl-4-methylsulfanylphenyl)-3-(4-fluorophenyl)-2,5-dihydro-2-furanone] | 126 to 130 |
| CSc1ccc(C2=C(c3ccccc3)C(=O)OC2)cc1C [Example 5, 4-(3-Methyl-4-methylsulfanylphenyl)-3-phenyl-2,5-dihydro-2-furanone] | 150 to 153 |
| COc1cc(C2=C(c3ccccc3)C(=O)OC2)ccc1SC [Example 14, 3-Phenyl-4-(3-methoxy-4-methylsulfanylphenyl)-2,5-dihydro-2-furanone] | 142 to 144 |
| CSc1ccc(C2=C(c3ccc(SC)c(F)c3)COC2=O)cc1 [Example 24, 4-(4-Methylsulfanyl-3-fluorophenyl)-3-(4-methylsulfanylphenyl)-2,5-dihydro-2-furanone] | 161 to 162 |
| CSc1ccc(C2=C(c3ccc(CC(C)C)cc3)C(=O)OC2)cc1C [Example 11, 4-(3-Methyl-4-methylsulfanylphenyl)-3-(4-isobutylphenyl)-2,5-dihydro-2-furanone] | 146 to 149 |
| CSc1ccc(C2=C(c3ccccc3)C(=O)OC2)cc1Cl [Example 20, 4-(4-Methylsulfanyl-3-chlorophenyl)-3-phenyl-2,5-dihydro-2-furanone] | 151 to 152 |
| CSc1ccc(C2=C(c3ccc(C)cc3)C(=O)OC2)cc1Cl [Example 26, 4-(4-Methylsulfanyl-3-chlorophenyl)-3-(4-methylphenyl)-2,5-dihydro-2-furanone] | 147 to 149 |
| CS(=O)(=O)c1ccc(C2=C(c3cccc4ccccc34)C(=O)OC2)c(F)c1 [Example 54, 4-(2-Fluoro-4-methylsulfonylphenyl)-3-(1-naphthyl)-2,5-dihydro-2-furanone] | 145 to 148 |
| CS(=O)(=O)c1ccc(C2=C(c3ccccc3)C(=O)N(c3ccc(F)cc3)C2=O)c(F)c1 [Example 98, 3-(2-Fluoro-4-methylsulfonylphenyl)-1-(4-fluorophenyl)-4-phenyl-2,5-dihydro-1H-2,5-azoledione] | 198 to 200 |
| COc1ccc(C2=C(c3ccc(SC)c(C)c3)COC2=O)cc1 [Example 12, 4-(3-Methyl-4-methylsulfanylphenyl)-3-(4-methoxyphenyl)-2,5-dihydro-2-furanone] | 147 to 150 |
| CSc1ccc(C2=C(c3ccc(F)c(F)c3)C(=O)OC2)cc1C [Example 3, 4-(3-Methyl-4-methylsulfanylphenyl)-3-(3,4-difluorophenyl)-2,5-dihydro-2-furanone] | 150 to 153 |
